{
  "source": "patent US6004905A",
  "about": "“Hyperabas: biologically active abscisic acid analogs with unsaturated carbon substituents at the 8'-methyl or 9'-methyl carbon atoms” (National Research Council of Canada, priority 1998, dated 1999)",
  "key": {"wheat seedlings": {"system": "wheat seedlings", "assay": "Transpiration in wheat seedlings", "assay_type": "in vivo, Triticum aestivum L. cv Katepwa", "conditions": "for reduction in transpiration: (+)-forms of methyl esters, 100 μM, 3 hours (FIG. 8); for EC50: Triticum aestivum, 3 h, intact wheat seedlings, three hours after application, read-out: concentration to reduce the transpiration rate to 50% (TR50); for reduction of transpiration (summary in words): in vivo", "excerpt": "ABA is a key signal molecule involved in regulating transpiration in plants (W. J. Davies T. A. Mansfield 1988 Abscisic acid and drought resistance in plants ISI Atlas of Science: Animal and Plant Sciences 0894-3761 p. 263-269). […] This difference in activity is shown in FIG. 4 in which the % transpiration effected by the (+)-forms of methyl esters of ABA (214) , 8'-methyl (370) and 8'-methylene ABA (357) are compared. The structures are as follows: [drawing 13] Seed Germination\nThe transpiration rate of 6 to 10 day old wheat seedlings (Triticum aestivum L. cv Katepwa) was measured as previously described (Rose et al.^7, 1996 incorporated herein by reference). Antitranspirant activity of the analogs (prepared as a 1% ethanol solution in water) was measured over a range of concentrations to determine the concentration where the transpiration rate of the wheat seedling is reduced by 50%. The transpiration rate (μMol H2 O/cm^2 s) was calculated and then given as a percentage of the initial transpiration rate of the plant (typically 0.28-0.35 μMol H2 O/cm^2 s), corrected for the effect of the control (1% ethanol).\nABA is a key signal molecule involved in regulating transpiration in plants. We had previously determined that esters were as active as acids in this assay (data not shown) so the effect of the methyl esters of natural ABA (+)-^8 '-methylene ABA and 8'-methyl ABA on transpiration in intact wheat seedlings was compared three hours after application. […] The difference in responses may be due to reduced uptake of the 8'-methyl ABA in the intact wheat seedling."}, "[1]": {"system": "suspension-cultured corn cells (var. Black Mexican Sweet)", "assay": "Growth inhibition of suspension-cultured corn cells", "assay_type": "cell-based, corn (maize)", "conditions": "for inhibition at 0.33 µM / IC50: Zea mays, 96 h; for inhibition at 0.33 µM: four day period, read-out: growth inhibition relative to the control; for IC50: four days after addition, read-out: concentration required for 50% inhibition of growth; for growth inhibition activity (comparison in words): four days"}, "cress seed": {"system": "cress seed", "assay": "Cress seed germination inhibition", "assay_type": "in vivo", "conditions": "for germination of cress seed: 5 μM (printed 5 M)", "description": "The experimental conditions were as follows: 100 seeds are placed on a 9 cm Whatman no. 1 filter paper in a petri dish and treated with 5 ml of solution.\nThe final concentration of the ethanol in the assay solutions was <0.05%. Assays were conducted with 100 seeds in each Petri dish and performed in triplicate. The germination measurements were based on the growth of the primary root. A seed was considered germinated when the radical was approximately the same length as the seed."}, "excised wheat embryos [2]": {"system": "excised wheat embryos", "assay": "Wheat embryo germination inhibition", "assay_type": "in vivo, Triticum aestivum L. cv. Clark's Cream", "conditions": "for concentration giving equivalent germination inhibition: (+)-8'-methylene ABA versus (+)-ABA (FIG. 12)", "description": "Grains of soft white wheat (Triticum aestivum L. cv. Clark's Cream) were used. For bioassay, embryos with some adhering endosperm and pericarp attached were cut from the grains with a razor blade. Analogs were prepared by dissolving into a minimal amount of DMSO to prepare a 0.1 M solution, and then diluted with […], pH 5.8, to 0.01, 0.1, 1, 10 and 100 μM. For each analog concentration six replicate germination assays were conducted on 10 embryos each at 30° C. Embryos were incubated in Petri dishes (100×15 mm) containing 6 ml solution."}, "[3]": {"system": "ABA-responsive cor6.6 promoter", "assay": "ABA-inducible gene expression (GUS activity) in transgenic tobacco seedlings containing Pcor6.6-GUS", "assay_type": "in vivo, transgenic tobacco (promoter from Arabidopsis thaliana)", "conditions": "24 hours; for induction of GUS activity: 200 micromolar, relative to untreated control", "quoted_text": "The results shown are an average of duplicate assays on samples containing 34 seedlings.\nThe results shown are an average of duplicate samples containing cotyledons from 34 seedlings."}, "corn cells": {"system": "corn cells", "assay": "Depletion (persistence) from corn cell culture media", "assay_type": "in vitro ADME, corn (maize)", "description": "Ethanolic stock solutions of (+)-ABA, (+)-8'-methylene ABA and (+)-8'-methyl ABA were added to flasks containing 0.2 g of corn cells and 10 ml of culture medium to obtain a final concentration of 100 μM of hormone or analog. Aliquots of medium (100 μl) were removed at intervals and analyzed for ABA or ABA analog content by HPLC as described previously (Balsevich et al.^6, 1994). Each compound was inoculated into 3 flasks and duplicate samples were removed at the indicated time points. The corn cells were used 1 or 2 days after subculturing."}, "[4]": {"system": "suspension-cultured corn cells (var. Black Mexican Sweet)", "conditions": "Balsevich et al 1994, cited from earlier work"}, "[5]": {"system": "suspension-cultured corn cells", "conditions": "Balsevich et al 1994, cited from earlier work"}, "excised wheat embryos [6]": {"system": "excised wheat embryos", "conditions": "Walker-Simmons et al., 1992, cited from earlier work"}, "[7]": {"system": "suspension-cultured corn cells", "assay": "Medium pH changes in corn cell suspension cultures", "assay_type": "cell-based, corn (maize)", "conditions": "10 μM solution", "description": "Cell growth was measured by the change in fresh weight over a 4-day period, as previously described (Balsevich et al.^6, 1994). The medium pH changes associated with addition of (+)-ABA and (+)-8'-methylene ABA were also measured as described by Balsevich et al.^6, (1994)."}, "[8]": {"system": "Black Mexican Sweet maize cells", "assay": "Metabolites from maize suspension cells", "assay_type": "in vitro ADME", "conditions": "100 μM, 90 h", "description": "Eighteen g of Black Mexican Sweet maize cells were subcultured into a 1L flask containing 500 ml sterile medium as described previously (Balsevich et al.^6, 1994). […] At the end of the culture period, the cells were removed by filtration. The filtrate was frozen until processed for isolation.\nThe metabolites were extracted from the culture filtrate by a chromatographic procedure using Supelco Amberlite XAD-2 resin (Balsevich et al. 6, 1994). The crude product isolated from the resin was partially purified by preparative TLC (silica gel 60 GF254, 20 cm×20 cm×1 mm, toluene-EtOAc-HOAc 25:15:2 as eluent), giving two isomeric acids, The acids were separately reacted with diazomethane, and then further purified by HPLC as their methyl esters yielding approx. 0.5 mg of each metabolite."}, "[9]": {"assay": "ABA-like (hormonal) activity in various assays", "design": "species or system plants", "conditions": "wheat and cress"}},
  "note": "“Also recorded” adds a separate entry of the source. Where two headings read alike, the source gives them in different places.",
  "data": [
    {"smiles": "C=CC1(C)CC(=O)C=C(C)C1(O)/C=C/C(C)=C\\C(=O)OC", "note": "(single isomer, unassigned; (+)) [(+)-9'-ethylene methyl ABA]", "values": [
      {"measurement": "reduction in transpiration", "setting": "wheat seedlings", "value": "Equivalent high activity"}
    ]},
    {"smiles": "CC1=CC(=O)CC(C)(C)[C@@]1(O)/C=C/C(C)=C\\C(=O)O", "note": "[(+)-ABA, abscisic acid]", "values": [
      {"measurement": "inhibition at 0.33 µM", "setting": "[1]", "value": 17, "unit": "%"},
      {"measurement": "IC50", "setting": "[1]", "value": "~10", "unit": "µM"},
      {"measurement": "germination of cress seed", "setting": "cress seed", "value": "begins to germinate"},
      {"measurement": "concentration giving equivalent germination inhibition", "setting": "excised wheat embryos [2]", "value": 10, "unit": "µM"},
      {"measurement": "induction of GUS activity", "setting": "[3]", "value": "strongly induced GUS activity"},
      {"measurement": "time by which 50% had disappeared from the medium", "setting": "corn cells; initial 100 μM, corn cell culture (FIG. 10)", "value": "≤ 24", "unit": "h"},
      {"measurement": "growth inhibition (literature)", "setting": "[4]", "value": "inhibits growth of maize suspension-cultured cells over a four day period"},
      {"measurement": "growth inhibition (literature)", "setting": "[4]; listed as Natural ABA", "value": "causes growth inhibition"},
      {"measurement": "shift (elevation) in pH of the medium (literature)", "setting": "[5]; listed as Natural ABA", "value": "causes a transient elevation of pH of the corn cell culture medium; also recorded: causes a shift in the pH of the medium of cultured corn cells"},
      {"measurement": "time of maximum of transient elevation of medium pH", "setting": "[5]; after ABA addition", "value": "about 6 h"},
      {"measurement": "germination inhibitory activity, wheat embryos (literature)", "setting": "excised wheat embryos [6]", "value": "equally effective in inhibiting germination"},
      {"measurement": "germination inhibitory activity, wheat embryos (literature)", "setting": "excised wheat embryos [6]; listed as ABA", "value": "both enantiomers of ABA were equally effective"}
    ]},
    {"smiles": "C=C[C@@]1(C)CC(=O)C=C(C)[C@]1(O)/C=C/C(C)=C\\C(=O)OC", "note": "[compound 357, (+) Methyl 8'-methyleneabscisate]", "values": [
      {"measurement": "EC50", "setting": "wheat seedlings; methyl esters", "value": "5 to 10", "unit": "µM"},
      {"measurement": "reduction of transpiration (summary in words)", "setting": "wheat seedlings", "value": "most active analog"}
    ]},
    {"smiles": "C#CC1(C)CC(=O)C=C(C)C1(O)C=CC(C)=CC(=O)O", "note": "(stereo not shown) [8'-acetylene ABA]", "values": [
      {"measurement": "growth inhibition activity (comparison in words)", "setting": "[1]", "value": "more potent than ABA"}
    ]},
    {"smiles": "CC1=CC(=O)CC(C)(C)[C@]1(O)/C=C/C(C)=C\\C(=O)O", "note": "[(-)-ABA]", "values": [
      {"measurement": "shift (elevation) in pH of the medium (literature)", "setting": "[5]", "value": "only weakly"},
      {"measurement": "germination inhibitory activity, wheat embryos (literature)", "setting": "excised wheat embryos [6]", "value": "equally effective in inhibiting germination"}
    ]},
    {"smiles": "C=C[C@@]1(C)CC(=O)C=C(C)[C@]1(O)/C=C/C(C)=C\\C(=O)O", "note": "[(+)-8'-methylene ABA, (+) 8'-methyleneabscisic acid]", "values": [
      {"measurement": "inhibition at 0.33 µM", "setting": "[1]", "value": 64, "unit": "%"},
      {"measurement": "IC50", "setting": "[1]", "value": "< 0.33", "unit": "µM"},
      {"measurement": "growth inhibition activity (comparison in words)", "setting": "[1]", "value": "stronger growth inhibition activity than (+)-ABA at all tested concentrations; also recorded: more effective than ABA"},
      {"measurement": "growth inhibition activity (comparison in words)", "setting": "[1]; listed as 8'-methylene ABA", "value": "the strongest growth inhibition produced by any ABA analog so far"},
      {"measurement": "growth inhibition activity (comparison in words)", "setting": "[1]; listed as (+)-methylene ABA", "value": "significantly stronger than either (+)-ABA or (+)-8'-methyl ABA"},
      {"measurement": "shift in pH of the medium", "setting": "[7]", "value": "causes a comparable shift in pH as that produced by ABA"},
      {"measurement": "shift in pH of the medium", "setting": "[7]; listed as (+)- 8'-methylene ABA", "value": "causes as great a shift in pH as ABA"},
      {"measurement": "reduction of transpiration (summary in words)", "setting": "wheat seedlings", "value": "more effective than ABA"},
      {"measurement": "germination inhibition of cress seed", "setting": "cress seed; 1 μM", "value": "more potent than ABA"},
      {"measurement": "germination of cress seed", "setting": "cress seed", "value": "does not germinate"},
      {"measurement": "germination of cress seed", "setting": "cress seed; listed as 8'-Methylene analog", "value": "remain dormant"},
      {"measurement": "germination inhibition of cress seed (summary in words)", "setting": "cress seed; in vivo", "value": "more effective than ABA"},
      {"measurement": "concentration giving equivalent germination inhibition", "setting": "excised wheat embryos [2]", "value": 1.0, "unit": "µM"},
      {"measurement": "times more effective than natural ABA, germination inhibition of excised wheat embryos", "setting": "excised wheat embryos [2]; embryos from dormant wheat grains (FIG. 12)", "value": "at least 10 times"},
      {"measurement": "germination inhibitory activity, wheat embryos (in words)", "setting": "excised wheat embryos [2]; in vivo", "value": "more active than (+)-ABA; also recorded: most potent compound over all concentrations and time points; also recorded: more effective than ABA"},
      {"measurement": "induction of ABA-responsive gene expression (in words)", "setting": "[3]; 100 μM", "value": "slightly weaker inducer than ABA; also recorded: highly effective in inducing ABA-responsive gene expression"},
      {"measurement": "induction of GUS activity", "setting": "[3]", "value": "strongly induced GUS activity"},
      {"measurement": "time by which 50% had disappeared from the medium", "setting": "corn cells; corn, corn cell culture medium, 100 µM", "value": "~100", "unit": "h"},
      {"measurement": "metabolites identified", "setting": "[8]", "value": "two isomeric epoxides"},
      {"measurement": "germination inhibition in seeds of both a monocot and a dicot", "setting": "[9]", "value": "more effective germination inhibitor in seeds of both a monocot and a dicot"}
    ]},
    {"smiles": "CC[C@@]1(C)CC(=O)C=C(C)[C@]1(O)/C=C/C(C)=C\\C(=O)OC", "note": "[compound 370]", "values": [
      {"measurement": "EC50", "setting": "wheat seedlings; methyl esters", "value": 100, "unit": "µM"},
      {"measurement": "reduction of transpiration (summary in words)", "setting": "wheat seedlings", "value": "relatively weak in this assay"},
      {"measurement": "% transpiration effect (comparison in words)", "setting": "wheat seedlings; methyl esters, (+)-forms, 10 μM, 3 hours (FIG. 4)", "value": "not as active as the vinyl analog"}
    ]},
    {"smiles": "COC(=O)/C=C(C)\\C=C\\[C@@]1(O)C(C)=CC(=O)CC1(C)C", "note": "[compound 214]", "values": [
      {"measurement": "reduction in transpiration", "setting": "wheat seedlings", "value": "Equivalent high activity"},
      {"measurement": "EC50", "setting": "wheat seedlings; methyl ester, unit M", "value": "25 to 50", "unit": "µM"}
    ]}
  ]
}
